Like-named read-outs stand apart in the source and are kept apart here.
Columns and labels:
SARS‐CoV‐2 = assay: microbe, parasite or virus in culture; format: cell-based; conditions: Severe acute respiratory syndrome coronavirus 2, Vero
MRC‐5 cells = conditions: human
HCoV‐229E = assay: microbe, parasite or virus in culture; format: cell-based; conditions: Human coronavirus 229E, MRC5, read-out: EC50 ± SD, HCoV‐229E
[1] = test system: SARS‐CoV‐2 Gamma (hCoV‐19/Korea/KDCA95637/2021); assay: microbe, parasite or virus in culture; format: cell-based; conditions: Severe acute respiratory syndrome coronavirus 2; Calu‐3; read-out: EC50 ± SD, SARS‐CoV‐2 Gamma
in vitro [2] = conditions: human
HCoV‐OC43 = assay: microbe, parasite or virus in culture; format: cell-based; conditions: Betacoronavirus 1, OC43, MRC5, read-out: EC50 ± SD, HCoV‐OC43
MERS‐CoV = assay: microbe, parasite or virus in culture; format: cell-based; conditions: Middle East respiratory syndrome-related coronavirus, Huh-7, read-out: EC50 ± SD, MERS‐CoV
[3] = test system: SARS‐CoV‐2 (hCoV‐19/Korea/KCDC06/2020, wild type); assay: microbe, parasite or virus in culture; format: cell-based
in vitro [4] = conditions: rhesus monkey
in vivo = conditions: ICR, mouse, po, p.o. 10 mg kg^−1 with 20 mg kg^−1 ritonavir, ICR mice, n = 3
[5] = test system: SARS‐CoV‐2 Delta (hCoV‐19/Korea/KDCA119861/2021); assay: microbe, parasite or virus in culture; format: cell-based; conditions: Severe acute respiratory syndrome coronavirus 2; Calu‐3; read-out: EC50 ± SD, SARS‐CoV‐2 Delta
HCoV‐NL63 = assay: microbe, parasite or virus in culture; format: cell-based; conditions: Human coronavirus NL63, LLC-MK2, read-out: EC50 ± SD, HCoV‐NL63
[6] = test system: SARS‐CoV‐2 Omicron (hCoV‐19/Korea/KDCA447321/2021); assay: microbe, parasite or virus in culture; format: cell-based; conditions: Severe acute respiratory syndrome coronavirus 2, Calu-3, read-out: EC50 ± SD, SARS‐CoV‐2 Omicron
in vitro [7] = conditions: human; remark: listed apart in the source
in vitro [8] = conditions: African green monkey

## CC(C)(C)[C@H](NC(=O)C(F)(F)F)C(=O)N1C[C@H]2[C@@H]([C@H]1C(=O)N[C@H](C#N)C[C@@H]1CCNC1=O)C2(C)C [Nirmatrelvir, reference compound]
SARS‐CoV‐2; read-out: EC50 ± SD, Vero cells, with P‐gp inhibitor
  EC50: < 46 nM
SARS‐CoV‐2; read-out: EC50 ± SD, Vero cells, without P‐gp inhibitor
  EC50: 2080 ± 214 nM
MRC‐5 cells
  CC50: > 100000 nM
HCoV‐229E
  EC50: 378 nM
[1]
  EC50: 3430 ± 519 nM
In vitro [2]
  CC50: > 100000 nM
HCoV‐OC43
  EC50: < 46 nM
MERS‐CoV
  EC50: 58 nM
[3]; Severe acute respiratory syndrome coronavirus 2, Calu-3, read-out: EC50, anti‐SARS‐CoV‐2 activity in Calu‐3 cells (Figure 3B)
  EC50: 1950 nM
[3]; Severe acute respiratory syndrome coronavirus 2, Calu-3, read-out: EC50 ± SD, Calu‐3 cells, with P‐gp inhibitor
  EC50: < 46 nM
[3]; Severe acute respiratory syndrome coronavirus 2, Calu-3, read-out: EC50 ± SD, Calu‐3 cells, without P‐gp inhibitor
  EC50: 1000 ± 31 nM
[3]; Severe acute respiratory syndrome coronavirus 2, Calu-3, read-out: EC50 ± SD, SARS‐CoV‐2 Wild‐type
  EC50: 2780 nM
In vitro [4]
  CC50: > 100000 nM
In vivo; 10 mg/kg, Cmax, p.o. in combination with ritonavir
  Cmax: 7450 ± 715 ng/mL
In vivo; 10 mg/kg, MRT0‐t, p.o. in combination with ritonavir
  MRT: 1.55 ± 0.051 h
In vivo; 10 mg/kg, MRT0‐∞, p.o. in combination with ritonavir
  MRT: 1.55 ± 0.055 h
In vivo; 10 mg/kg, t1/2, p.o. in combination with ritonavir
  half-life: 0.692 ± 0.204 h
In vivo; AUC0‐t, p.o. in combination with ritonavir
  AUC: 14600 ng·h/mL
[5]
  EC50: 3700 ± 598 nM
HCoV‐NL63
  EC50: > 100000 nM
[6]
  EC50: 3390 ± 245 nM
In vitro [7]
  CC50: > 100000 nM
In vitro [7]; CC50 (Table 3), Calu‐3 cells
  CC50 at 2 day: > 100000 nM
In vitro [7]; CC50, Calu‐3 cells, MTT assay
  CC50 at 2 day: > 100000 nM
In vitro [8]
  CC50 at 2 day: > 100000 nM
